## COc1cccc(C(=O)O)c1OC
In 1,4-dioxane, 288.15 K
  solubility (mole fraction): 0.0585
In 1,4-dioxane, 293.15 K
  solubility (mole fraction): 0.069
In 1,4-dioxane, 298.15 K
  solubility (mole fraction): 0.0805
In 1,4-dioxane, 303.15 K
  solubility (mole fraction): 0.0934
In 1,4-dioxane, 308.15 K
  solubility (mole fraction): 0.11
In 1,4-dioxane, 313.15 K
  solubility (mole fraction): 0.127
In 1,4-dioxane, 318.15 K
  solubility (mole fraction): 0.148
In 2-ethoxyethanol, 278.15 K
  solubility (mole fraction): 0.0418
In 2-ethoxyethanol, 283.15 K
  solubility (mole fraction): 0.0485
In 2-ethoxyethanol, 288.15 K
  solubility (mole fraction): 0.0552
In 2-ethoxyethanol, 293.15 K
  solubility (mole fraction): 0.0644
In 2-ethoxyethanol, 298.15 K
  solubility (mole fraction): 0.0733
In 2-ethoxyethanol, 303.15 K
  solubility (mole fraction): 0.084
In 2-ethoxyethanol, 308.15 K
  solubility (mole fraction): 0.0974
In 2-ethoxyethanol, 313.15 K
  solubility (mole fraction): 0.109
In 2-ethoxyethanol, 318.15 K
  solubility (mole fraction): 0.128
In 2-ethoxyethanol, 323.15 K
  solubility (mole fraction): 0.146
In acetonitrile, 278.15 K
  solubility (mole fraction): 0.0108
In acetonitrile, 283.15 K
  solubility (mole fraction): 0.0133
In acetonitrile, 288.15 K
  solubility (mole fraction): 0.0167
In acetonitrile, 293.15 K
  solubility (mole fraction): 0.0204
In acetonitrile, 298.15 K
  solubility (mole fraction): 0.0254
In acetonitrile, 303.15 K
  solubility (mole fraction): 0.0309
In acetonitrile, 308.15 K
  solubility (mole fraction): 0.0385
In acetonitrile, 313.15 K
  solubility (mole fraction): 0.0474
In acetonitrile, 318.15 K
  solubility (mole fraction): 0.059
In acetonitrile, 323.15 K
  solubility (mole fraction): 0.0734
In ethanol, 278.15 K
  solubility (mole fraction): 0.0131
In ethanol, 283.15 K
  solubility (mole fraction): 0.0165
In ethanol, 288.15 K
  solubility (mole fraction): 0.0202
In ethanol, 293.15 K
  solubility (mole fraction): 0.0252
In ethanol, 298.15 K
  solubility (mole fraction): 0.0304
In ethanol, 303.15 K
  solubility (mole fraction): 0.0384
In ethanol, 308.15 K
  solubility (mole fraction): 0.0466
In ethanol, 313.15 K
  solubility (mole fraction): 0.0592
In ethanol, 318.15 K
  solubility (mole fraction): 0.0714
In ethanol, 323.15 K
  solubility (mole fraction): 0.0884
In ethyl acetate, 278.15 K
  solubility (mole fraction): 0.0133
In ethyl acetate, 283.15 K
  solubility (mole fraction): 0.0159
In ethyl acetate, 288.15 K
  solubility (mole fraction): 0.0189
In ethyl acetate, 293.15 K
  solubility (mole fraction): 0.023
In ethyl acetate, 298.15 K
  solubility (mole fraction): 0.0271
In ethyl acetate, 303.15 K
  solubility (mole fraction): 0.0332
In ethyl acetate, 308.15 K
  solubility (mole fraction): 0.0391
In ethyl acetate, 313.15 K
  solubility (mole fraction): 0.0464
In ethyl acetate, 318.15 K
  solubility (mole fraction): 0.057
In ethyl acetate, 323.15 K
  solubility (mole fraction): 0.0685
In ethylene glycol, 278.15 K
  solubility (mole fraction): 0.0468
In ethylene glycol, 283.15 K
  solubility (mole fraction): 0.0529
In ethylene glycol, 288.15 K
  solubility (mole fraction): 0.0616
In ethylene glycol, 293.15 K
  solubility (mole fraction): 0.0708
In ethylene glycol, 298.15 K
  solubility (mole fraction): 0.0801
In ethylene glycol, 303.15 K
  solubility (mole fraction): 0.092
In ethylene glycol, 308.15 K
  solubility (mole fraction): 0.104
In ethylene glycol, 313.15 K
  solubility (mole fraction): 0.12
In ethylene glycol, 318.15 K
  solubility (mole fraction): 0.137
In ethylene glycol, 323.15 K
  solubility (mole fraction): 0.154
In isopropanol, 278.15 K
  solubility (mole fraction): 0.00832
In isopropanol, 283.15 K
  solubility (mole fraction): 0.0106
In isopropanol, 288.15 K
  solubility (mole fraction): 0.0138
In isopropanol, 293.15 K
  solubility (mole fraction): 0.0175
In isopropanol, 298.15 K
  solubility (mole fraction): 0.0233
In isopropanol, 303.15 K
  solubility (mole fraction): 0.0291
In isopropanol, 308.15 K
  solubility (mole fraction): 0.0384
In isopropanol, 313.15 K
  solubility (mole fraction): 0.0482
In isopropanol, 318.15 K
  solubility (mole fraction): 0.0632
In isopropanol, 323.15 K
  solubility (mole fraction): 0.0791
In isopropyl acetate, 278.15 K
  solubility (mole fraction): 0.00953
In isopropyl acetate, 283.15 K
  solubility (mole fraction): 0.0111
In isopropyl acetate, 288.15 K
  solubility (mole fraction): 0.0137
In isopropyl acetate, 293.15 K
  solubility (mole fraction): 0.0162
In isopropyl acetate, 298.15 K
  solubility (mole fraction): 0.0198
In isopropyl acetate, 303.15 K
  solubility (mole fraction): 0.0237
In isopropyl acetate, 308.15 K
  solubility (mole fraction): 0.029
In isopropyl acetate, 313.15 K
  solubility (mole fraction): 0.0339
In isopropyl acetate, 318.15 K
  solubility (mole fraction): 0.0425
In isopropyl acetate, 323.15 K
  solubility (mole fraction): 0.0499
In methanol, 278.15 K
  solubility (mole fraction): 0.0151
In methanol, 283.15 K
  solubility (mole fraction): 0.0192
In methanol, 288.15 K
  solubility (mole fraction): 0.0229
In methanol, 293.15 K
  solubility (mole fraction): 0.0288
In methanol, 298.15 K
  solubility (mole fraction): 0.0348
In methanol, 303.15 K
  solubility (mole fraction): 0.0446
In methanol, 308.15 K
  solubility (mole fraction): 0.0535
In methanol, 313.15 K
  solubility (mole fraction): 0.0682
In methanol, 318.15 K
  solubility (mole fraction): 0.0838
In methanol, 323.15 K
  solubility (mole fraction): 0.101
In methyl acetate, 278.15 K
  solubility (mole fraction): 0.0166
In methyl acetate, 283.15 K
  solubility (mole fraction): 0.0197
In methyl acetate, 288.15 K
  solubility (mole fraction): 0.0236
In methyl acetate, 293.15 K
  solubility (mole fraction): 0.0282
In methyl acetate, 298.15 K
  solubility (mole fraction): 0.034
In methyl acetate, 303.15 K
  solubility (mole fraction): 0.041
In methyl acetate, 308.15 K
  solubility (mole fraction): 0.0494
In methyl acetate, 313.15 K
  solubility (mole fraction): 0.0589
In methyl acetate, 318.15 K
  solubility (mole fraction): 0.0719
In methyl acetate, 323.15 K
  solubility (mole fraction): 0.0862
In n-butanol, 278.15 K
  solubility (mole fraction): 0.00922
In n-butanol, 283.15 K
  solubility (mole fraction): 0.0116
In n-butanol, 288.15 K
  solubility (mole fraction): 0.0144
In n-butanol, 293.15 K
  solubility (mole fraction): 0.0183
In n-butanol, 298.15 K
  solubility (mole fraction): 0.0219
In n-butanol, 303.15 K
  solubility (mole fraction): 0.0284
In n-butanol, 308.15 K
  solubility (mole fraction): 0.0362
In n-butanol, 313.15 K
  solubility (mole fraction): 0.0449
In n-butanol, 318.15 K
  solubility (mole fraction): 0.0562
In n-butanol, 323.15 K
  solubility (mole fraction): 0.0716
In n-butyl acetate, 278.15 K
  solubility (mole fraction): 0.00923
In n-butyl acetate, 283.15 K
  solubility (mole fraction): 0.0111
In n-butyl acetate, 288.15 K
  solubility (mole fraction): 0.0134
In n-butyl acetate, 293.15 K
  solubility (mole fraction): 0.016
In n-butyl acetate, 298.15 K
  solubility (mole fraction): 0.0195
In n-butyl acetate, 303.15 K
  solubility (mole fraction): 0.0234
In n-butyl acetate, 308.15 K
  solubility (mole fraction): 0.0286
In n-butyl acetate, 313.15 K
  solubility (mole fraction): 0.0342
In n-butyl acetate, 318.15 K
  solubility (mole fraction): 0.0428
In n-butyl acetate, 323.15 K
  solubility (mole fraction): 0.0506
In n-propanol, 278.15 K
  solubility (mole fraction): 0.00925
In n-propanol, 283.15 K
  solubility (mole fraction): 0.0122
In n-propanol, 288.15 K
  solubility (mole fraction): 0.0151
In n-propanol, 293.15 K
  solubility (mole fraction): 0.0197
In n-propanol, 298.15 K
  solubility (mole fraction): 0.0243
In n-propanol, 303.15 K
  solubility (mole fraction): 0.0316
In n-propanol, 308.15 K
  solubility (mole fraction): 0.0386
In n-propanol, 313.15 K
  solubility (mole fraction): 0.05
In n-propanol, 318.15 K
  solubility (mole fraction): 0.0618
In n-propanol, 323.15 K
  solubility (mole fraction): 0.0793
In n-propyl acetate, 278.15 K
  solubility (mole fraction): 0.0106
In n-propyl acetate, 283.15 K
  solubility (mole fraction): 0.0133
In n-propyl acetate, 288.15 K
  solubility (mole fraction): 0.0154
In n-propyl acetate, 293.15 K
  solubility (mole fraction): 0.0193
In n-propyl acetate, 298.15 K
  solubility (mole fraction): 0.0224
In n-propyl acetate, 303.15 K
  solubility (mole fraction): 0.0279
In n-propyl acetate, 308.15 K
  solubility (mole fraction): 0.0326
In n-propyl acetate, 313.15 K
  solubility (mole fraction): 0.0403
In n-propyl acetate, 318.15 K
  solubility (mole fraction): 0.0468
In n-propyl acetate, 323.15 K
  solubility (mole fraction): 0.0583
In water, 278.15 K
  solubility (mole fraction): 4.79e-05
In water, 283.15 K
  solubility (mole fraction): 6.1e-05
In water, 288.15 K
  solubility (mole fraction): 7.77e-05
In water, 293.15 K
  solubility (mole fraction): 0.0001
In water, 298.15 K
  solubility (mole fraction): 0.000125
In water, 303.15 K
  solubility (mole fraction): 0.000162
In water, 308.15 K
  solubility (mole fraction): 0.000202
In water, 313.15 K
  solubility (mole fraction): 0.00026
In water, 318.15 K
  solubility (mole fraction): 0.000323
In water, 323.15 K
  solubility (mole fraction): 0.000399

Reference: BigSolDB 2.1
